Experimental data reported in article PMC4557752, “EST-based in silico identification and in vitro test of antimicrobial peptides in Brassica napus” (BMC Genomics, 2015).

Columns and labels:
E. coli ATCC2592 = test: radial diffusion assay against E. coli (G- strain); format: cell-based, Escherichia coli; design: G- strain halo diameter: unit not given here; conditions: for G- strain halo diameter: radial diffusion, E. coli ATCC2592 approx 2 x 10^6 cfu/mL in 1 % agarose underlay gel, 3.5 mm holes, 100 μL AMP sample, 37 °C 12 h, diameter of clear zone, performed in triplicate, '-' = no zone
Procedure: (§1) Purified His-EDDIE-AMPs inclusion bodies were refolded by rapid 1:50 dilution in an optimized refolding buffer (500 mM NaCl, 20 mM Tris, 2 mM EDTA, 5 % glycerol, 10 mM DTT, 0.01 % Tween-20, pH 7.5) and incubated at an appropriate temperature without stirring. During refolding, EDDIE restored its correct conformation and self-cleaved at the specific sites, releasing AMPs from the fusion bodies. Renatured protein solution was then clarified by centrifugation at 15,000 x g at 4 °C for 30 min. The insoluble sample was removed by filtering through a 0.45 μm membrane, leaving the AMPs in the supernatant. The supernatants were transferred to a Ni-NTA His-bind column for purification.
(§2) The antimicrobial activities of recombinant AMPs were detected using a radial diffusion assay. E. coli ATCC2592 and M. luteus ACCC11001 were grown on the mid-logarithmic phase and washed. Approximately 2 × 10^6 cfu/mL bacteria were incorporated into a thin (1.2 mm) agarose underlay gel containing 1 % (w/v) agarose. Holes with 3.5 mm diameter were punched into the solidified agarose and were filled with 100 μL of AMP sample. After the plates were incubated at 37 °C for 12 h, the diameter of the clear zone surrounding each well was measured to evaluate the antimicrobial activity. The refolding buffer was used as negative controls. The above assays were performed in triplicate.

M. luteus ACCC11001 = test: radial diffusion assay against M. luteus (G+ strain); format: cell-based, Micrococcus luteus; design: G+ strain halo diameter: unit not given here; conditions: for G+ strain halo diameter: radial diffusion, M. luteus ACCC11001 approx 2 x 10^6 cfu/mL in 1 % agarose underlay gel, 3.5 mm holes, 100 μL AMP sample, 37 °C 12 h, diameter of clear zone, performed in triplicate, '-' = no zone
Procedure: as §1, §2

S. sclerotiorum = test: antifungal radial diffusion assay on potato plates; format: cell-based, Sclerotinia sclerotiorum; conditions: PDA/potato plates, 200 μL sample beside the fungi, 22 °C 72 h; refolding buffer control
Procedure: as §1
The antifungal activity of the purified products was assayed using an ultra-sensitive radial diffusion method on thin potato plates (200 g potato, 20 g glucose, 15–20 g agar powder, 1 L double-distilled water) seeded with filamentous fungi. Briefly, 9-cm plates were poured with an underlay potato medium, and S. sclerotiorum on a 1-cm diameter potato medium were seeded on the center of the plates, which were then incubated at 22 °C until hypha grew to 2 cm in diameter. Two hundred microliters of the test sample and negative control (refolding buffer) was placed beside the filamentous fungi, and the plates were incubated at 22 °C for 72 h; the size of the clear area around the filamentous fungi was then measured.

Sequence	G- strain halo diameter (E. coli ATCC2592)	G+ strain halo diameter (M. luteus ACCC11001)	growth of the filamentous fungal strain S. sclerotiorum (in words) (S. sclerotiorum)	antimicrobial activity to Gram negative strains (in words) (E. coli ATCC2592; radial diffusion assay, E. coli, refolding buffer as negative control)	antimicrobial activity to Gram positive strains (in words) (M. luteus ACCC11001; radial diffusion assay, M. luteus, refolding buffer as negative control)
KTCCPTTTARRIFDSCYGPSVPLTFCARISGCHLFPQSTTCPPEFP [Bn18, recombinant B. napus AMP candidate, 46 aa]	1.978	0.107			
NQCGQFVSGALINTCCCLFKCG [Bn23, recombinant B. napus AMP candidate, 22 aa]	0.756	1.233			
QNCGCAPNLCCSQFGYCGSTDAYRDWLP [Bn25, recombinant B. napus AMP candidate, 28 aa]	1.567	0.367			
RTCESRSHRFKGPCVSENNCANVCHT [Bn24, recombinant B. napus AMP candidate, 26 aa]		0.967			
LQFPVGRISRYLKKGRYAIRYGAGAP [Bn30, recombinant B. napus AMP candidate, 26 aa]	1.289	1.4	grow normally		
KECEERSRQSRSFSVICKYDYACQNHCINLEKADGGQCNSRSPTAKCICYFQC [Bn8, recombinant B. napus AMP candidate, 53 aa]	1.656	2.056			
ALTCGTVNSNVAPCIGYITQGGPLPGACCTG [Bn27, recombinant B. napus AMP candidate, 31 aa]	1.756	2.044			
RVCNTQSHHYRGPCWRNHNCAMVCRTEGFSGGDCVGIPRRCYCTKRC [Bn16, recombinant B. napus AMP candidate, 47 aa]		1.322			
NICCSQYGYCGTTADYCSPDNNCQSNC [Bn15, recombinant B. napus AMP candidate, 27 aa]		0.944			
CAPNHCCSQFGYCGTNDAHCGAGCKS [Bn29, recombinant B. napus AMP candidate]	1.7				
EQCGRRRVERCSRMAVLCEFGWCGDTEPYCKQTGCQSQCGG [Bn3, recombinant B. napus AMP candidate, 41 aa]	1.867	1.811			
PPTQNPSMAPPTQNPYGQPMAPPTQNPYGQPMAPP [Bn19, recombinant B. napus AMP, 35 aa; new member of the proline-rich antimicrobial peptide family, similar to SP-B]	3.011	3.022		highest activities	highest activities
EQCGRQAGGALCPNGLCCSNLAGAAIPNRIANRPVARASVAA [Bn2, recombinant B. napus AMP candidate, 42 aa]	1.189	1.067			
VVCDKSYTCPDKSTCCCVSESKGKCDSWGCCPFESATCCENGSSCCP [Bn10, recombinant B. napus AMP candidate, 47 aa]	1.722	1.2			
ALTCGTVNSNVARALAILPRGDRCPERAAPAKAN [Bn26, recombinant B. napus AMP candidate, 34 aa]	1.533	1.489			
AITCGTVTSSLAPCATLSSSGGEMPPPLCGGCAGVKKLNGMAQTTADRQ [Bn7, recombinant B. napus AMP candidate, 49 aa]	1.311				
AVTCNNVVGDLYPCLSYVMRGGNAPSTNCCNGVRTLNSQAQTTADRQSVCRCIKNA [Bn21, recombinant B. napus AMP candidate, 56 aa]	1.711	1.867			
RMCETSSQLFNGPCLSTNCANICQNEGFPDGDCKGFRLRCICNRPC [Bn13, recombinant B. napus AMP candidate, 46 aa]	2.222	1.722			
GKPSGSEKDKDKKKQPITRSARAGLQFPVGRVHRLLK [Bn5, recombinant B. napus AMP candidate, 37 aa]	1.711	2.2			
GRKAGGPKNKSVSKSIKAGLQFPVGRITRFLKKGRYAQRLGGERREIRLLTKPE [Bn1, recombinant B. napus AMP candidate, 54 aa]	1.256	1.633			
NWCGGKCEVRCKDVGMNDRCLKYCGICCKECKC [Bn20, recombinant B. napus AMP candidate, 33 aa]	1.489	1.089			
YVCTRVDCSGRCKGRCNKSSRPNLCLRACNSCCFRCNCVPPPGTHGNHHLRPCYASITT [Bn14, recombinant B. napus AMP candidate, 59 aa]	2.589	2.489			
KTHEEKSKTYRRLCVDETGCNHACIFNEHFAGGHCRHLECFC [Bn17, recombinant B. napus AMP candidate, 42 aa]	0.467	0.178			
CASGVGCSQYGYCGNGPDYCG [Bn28, recombinant B. napus AMP candidate, 21 aa]	0.867	1.089			
RCREASRKKVCYRAGGSCCAKCQCVPPGTSGNTASCPCYANLRTHGNKLKCP [Bn4, recombinant B. napus AMP candidate, 52 aa]	2.122	2.167			
IQCGKFFSCSEINTCCCLFKCGKYYFGWGCCPLEASTCCDDNTSCCP [Bn22, recombinant B. napus AMP candidate]	0.433				
